Data as given in publication PMC7500870 (Biochemistry, 2020).

Target: Cj1427 (Campylobacter jejuni, UniProt Q0P8I7)
Test: stopped-flow NADH fluorescence, single turnover, global fit by simulation
Assay type: binding

Sequence of Cj1427 (Q0P8I7 whole entry): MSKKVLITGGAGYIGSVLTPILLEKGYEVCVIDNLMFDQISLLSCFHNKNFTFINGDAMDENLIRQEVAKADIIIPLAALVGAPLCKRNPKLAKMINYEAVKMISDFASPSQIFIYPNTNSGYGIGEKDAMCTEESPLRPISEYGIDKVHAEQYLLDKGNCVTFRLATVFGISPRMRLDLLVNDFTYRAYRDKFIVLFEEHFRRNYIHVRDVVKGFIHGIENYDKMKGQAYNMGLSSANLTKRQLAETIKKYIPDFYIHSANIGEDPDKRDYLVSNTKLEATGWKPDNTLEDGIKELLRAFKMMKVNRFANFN

## O=C(O)CCC(=O)C(=O)O [α-ketoglutarate]
  Kd: 165 µM
